{"source": "patent US20230027864A1", "about": "“COMPOSITIONS AND METHODS FOR DELIVERY OF AGENTS TO IMMUNE CELLS” (ModernaTX, Inc., priority 2018, published 2023)", "key": {"T cells [1]": {"tested_on": "T cells", "assay": "LNP association and GFP mRNA expression in T cells of human PBMCs", "assay_type": "cell-based", "conditions": "third series, in vitro, FIG. 35"}, "monocytes": {"tested_on": "monocytes", "assay": "Sterol panel in LNPs, delivery in vivo (FIG. 40)", "conditions": "Cmpd X/sterol/Cmpd 428 LNPs, Y-axis percentage of CD3+ cells in spleen expressing mOX40L", "method": "In a second series of experiments, an additional panel of sterol compounds was tested in LNPs for monocyte delivery in vivo. The results for this panel of sterols tested for the structural lipid component of the LNP are shown in the bar graph of FIG. 40. […] The bars/lanes on the X-axis labeled 1-9 correspond to the following LNP compositions tested for mRNA delivery in vivo: Lane 1 is PBS. Lane 2 is Cmpd X/Cmpd 428, Lane 3 is Cmpd X/β sitosterol/Cmpd 428, Lane 4 is Cmpd X/β-sitosterol-d7/Cmpd 428, Lane 5 is Cmpd X/brassicasterol/Cmpd 428, Lane 6 is Cmpd X/unnamed sterol/Cmpd 428, Lane 7 is Cmpd X/Cmpd S-30/Cmpd 428, Lane S is Cmpd X/Cnpd S-32/Cmpd 428, Lane 9 is Cmpd X/Cmpd S-31/Cmpd 428."}, "CD3+ T cells": {"tested_on": "CD3+ T cells", "assay": "T cell transfection in vitro with varied LNP components, mOX40L mRNA", "assay_type": "cell-based, human", "conditions": "as ionizable lipid or PEG lipid component, Table 23", "method": "In this example, human peripheral blood mononuclear cells (PBMCs) from two different Donors (Donor 1 and Donor 2) were incubated in the presence of mRNA encoding mouse OX40L (mOX40L) (20 ng or 50 ng) encapsulated in each of the three different LNP compositions tested in Example 3. PBS was used as a negative control. Human PBMCs were incubated ex vivo with the various LNPs at 37° C. After 24 hours, cells were analyzed by flow cytometry for mOX40L protein expression in CD3+ T cells.\nIn this Example, LNPs were made with various lipid components and at different ratios and were tested for their ability to transfect T cells in vitro. Transfection was performed as in Example 5 using LNPs encapsulating an mRNA encoding mouse OX40L.\nIn a first set of experiments, phytosterol was used as the immune cell delivery potentiating lipid and other lipid constituents of the LNP were varied."}, "T cells [2]": {"tested_on": "T cells", "assay": "LNP association and GFP mRNA expression in T cells of human PBMCs", "assay_type": "cell-based", "conditions": "PEG lipid component of the LNP, FIG. 33", "method": "In a second series of experiments, additional compounds, were tested in the LNPs for their ability to enhance delivery to T cells. For these experiments, the association of the LNP with cells and the expression of mRNA-encoding protein within the transfected cells was assessed at the cell-by-cell level. Peripheral blood mononuclear cells (PBMCs) from human donors were used. PBMCs were predominately T cells (40-60%), B cells (3-15%), and monocytes (15-35%), but also contained small numbers of other cell types. LNPs were incubated with serum or PBS for 30 minutes and then added to the PBMCs. The LNP concentration was 0.050 mg/ml, the LNP volume was 0.1 ml.\nLNPs contained 0.1% Rhodamine-DOPE in addition to the other LNP components to facilitate detection. Thus, the ratios set forth in the tables below include 0.1 for the rhodamine label. For example, 50:10:10:27.9:2:0.1 AL:DSPC:chol:sterol:Cmp 428 indicates 50% amino lipid as the ionizable lipid, 10% DSPC as the phospholipid, 10% cholesterol, 27.9% phytosterol, 2% Compound 428 as the PEG lipid and 0.1% for the rhodamine-DOPE label. To prepare a non-labeled LNP, the same ratios are used except that the 0.1% rhodamine label is omitted and an additional 0.1% of structural lipid (cholesterol or cholesterol/phytosterol blend) is used (e.g., 27.9% becomes 28%).\nCells were sorted by flow cytometry into subsets based on expression of certain markers: CD3 (T cells), CD20 (B cells), and CD3-, CD20-, CD14+(Monocytes).\nmRNA encoding GFP was used as a model agent to effect expression of an intracellular protein.\nWhen conducting flow cytometry, the Y-axis was signal from the rhodamine tag on the LNP and the X-axis was the GFP signal showing expression of the protein.\nThe “associated” population is any rhodamine+ and/or GFP+ cell and the percent of these cells was calculated by dividing by the total number of cells. The “expression” population is any GFP+ cell and the percent of these cells was calculated by dividing by the total number of cells. The percent of associated cells expressing was obtained by dividing the % expressing cells by the % associated cells."}}, "data": [{"smiles": "CC(C)[C@@H](C)/C=C/[C@@H](C)[C@H]1CC[C@H]2[C@@H]3CC=C4C[C@@H](O)CC[C@]4(C)[C@H]3CC[C@]12C", "note": "[brassicasterol]", "values": [{"measurement": "immune cell delivery potentiating ability in T cells, additional sterol panel", "setting": "T cells [1]", "result": "exhibited immune cell delivery potentiating ability in T cells"}, {"measurement": "immune cell delivery potentiating ability in monocytes, additional sterol panel in vivo", "setting": "monocytes", "result": "exhibited immune cell delivery potentiating ability in monocytes"}]}, {"smiles": "CCCCCCCCCCCCCCCCCC(=O)OCCOCCOCCOCCOCCOCCOCCOCCOCCOCCOCCOCCOCCOCCOCCOCCOCCOCCOCCOCCOCCOCCOCCOCCOCCOCCOCCOCCOCCOCCOCCOCCOCCOCCOCCOCCOCCOCCOCCOCCOCCOCCOCCOCCOCCO", "note": "[Compound 428]", "values": [{"measurement": "delivery to T cells with phytosterol-containing LNP", "setting": "CD3+ T cells", "result": "enhanced delivery to T cells"}, {"measurement": "immune cell delivery potentiating ability in T cells, PEG lipid panel", "setting": "T cells [2]", "result": "exhibited immune cell delivery potentiating ability in T cells"}]}]}
